Test results taken from patent US20210220314A1, “AMINO ACID COMPOSITION FOR ENABLING FULFILMENT OF THE AMINO ACID REQUIREMENTS OF A MONOGASTRIC ANIMAL SUCH AS A HUMAN OR A PIG” (VETAGRO INTERNATIONAL S.R.L., priority 2018, published 2021).

Conditions: pig, in vivo, po

Row | SMILES | presence of marker in the content of different sections of the gastrointestinal tract
1 | C/C=C/C=C/C(=O)O [sorbic acid] | present in the different intestinal sections only when administered in encapsulated form in the lipid matrix
2 | COc1cc(C=O)ccc1O [vanillin] | present in the different intestinal sections only when administered in encapsulated form in the lipid matrix
